In patent EP1433789A1, “Pyrrolopyrazines and their use as selective apoptosis inducers” (Aponetics AG, priority 2002, dated 2004):

What was measured:
[1] = system: Jurkat; assay: AnnexinV/7-AAD staining; assay type: cell-based, human; settings: 10 µM, 24 h treatment
Experimental: (§1) Adherent cells (1 - 2*10^5) are 24 h prior to compound treatment seeded into 24 well tissue culture plates. Suspension cells are pipetted into P-tubes immediately before treatment. Test compounds are added leading to a final concentrations of 10 µM. After 24 h treatment cells are harvested (in case of adherent cells by trypsinization) and transferred to FACS tubes (BD Biosciences). After centrifugation and removal of the supernatant, 100 µl complete medium containing AnnexinV-GST (10 µg) is added, mixed and incubated at 4°C for 30 minutes. Subsequently, the cells are washed once with medium and incubated with 100 µl anti-GST Alexa 488 (Molecular Probes A-11131) in medium diluted 1:500 for 30 minutes at 4°C. Then, cells are washed once and stained with 1 µg/ml 7-aminoactinomycin D (7-AAD) (Molecular Probes A-1310) in 250 µl medium and analyzed on the FACSCalibur™. AnnexinV is measured in FL1 whereas 7-AAD is measured in FL3. In Table 5 the percentage of positively stained cells after treatment with the respective compounds are indicated. The following scores are used: Score 0 relates to less than 10%, score 1 relates to more than 10% but less than 50% and score 2 relates to more than 50% positivity.

[2] = system: Ramos; assay: AnnexinV/7-AAD staining; assay type: cell-based, human; settings: 10 µM, 24 h treatment
Experimental: as §1

[3] = system: HeLa; assay: AnnexinV/7-AAD staining; assay type: cell-based, human; settings: 10 µM, 24 h treatment
Experimental: as §1

[4] = system: A20; assay: AnnexinV/7-AAD staining; assay type: cell-based, mouse; settings: A20, 10 µM, 24 h treatment
Experimental: as §1

[5] = system: K562; assay: Hoechst 33342 nuclear staining (Table 3); assay type: cell-based, human; design: key: 0 relating to no activity; 1 relating to weak activity comprising less than 50% of the cells; score 2 relating to strong activity comprising more than 50% of the cells
Experimental: (§2) This assay is performed in 96 well tissue culture plates. Appropriate number of cells (adherent cells: 3 - 5*10^3, suspension cells: 8 - 10*10^3) are being seeded out in 80 µl complete medium. Adherent cells are incubated for 24 h for proper spreading out before addition of test compounds while suspension cells are immediately treated with test compounds after seeding out. The test compounds are added in 20 µl complete medium containing max 5% DMSO. The final compound concentrations in the assays are 10 µM, 3 µM,1 µM and 0.3 µM, respectively. After 24 h or 48 h incubation at culture conditions, 10 µl medium containing Hoechst 33342 dye (Sigma B-2261) at 2-5 µg/ml are added to each well. The assay plates are then further incubated for 30 minutes and subsequently analyzed with a standard inverted fluorescence microscope. The readout allows the determination of the fraction of apoptotic nuclei as well as other morphological criteria specific for apoptosis as a function of the treatment. The following scores are used: 0 relating to no activity, 1 relating to weak activity comprising less than 50% of the cells and score 2 relating to strong activity comprising more than 50% of the cells.

[6] = system: Jurkat; assay: Hoechst 33342 nuclear staining (Table 3); assay type: cell-based, human; design: key: 0 relating to no activity; 1 relating to weak activity comprising less than 50% of the cells; score 2 relating to strong activity comprising more than 50% of the cells
Experimental: as §2

[7] = system: Ramos; assay: Hoechst 33342 nuclear staining (Table 3); assay type: cell-based, human; design: key: 0 relating to no activity; 1 relating to weak activity comprising less than 50% of the cells; score 2 relating to strong activity comprising more than 50% of the cells
Experimental: as §2

[8] = system: HeLa; assay: Hoechst 33342 nuclear staining (Table 3); assay type: cell-based, human; design: key: 0 relating to no activity; 1 relating to weak activity comprising less than 50% of the cells; score 2 relating to strong activity comprising more than 50% of the cells
Experimental: as §2

[9] = system: KB; assay: Hoechst 33342 nuclear staining (Table 3); assay type: cell-based, human; design: key: 0 relating to no activity; 1 relating to weak activity comprising less than 50% of the cells; score 2 relating to strong activity comprising more than 50% of the cells
Experimental: as §2

[10] = system: K562; assay: MTS proliferation assay; assay type: cell-based; settings: Homo sapiens, K562, 72 h incubation
Experimental: (§3) The assay is performed in 96 well tissue culture plates. The cells (range : 1.5*10^3-10^4) are seeded out in 80 µl complete medium 24 h prior to compound treatment. The test compounds are added in 20 µl complete medium containing max 5% DMSO. The final compound concentrations in the assays are 10 µM, 3 µM,1 µM and 0.3 µM, respectively. The assay plates are incubated for 72 h at culture conditions. The MTS reagent is prepared according to the manufacturer's protocol (Promega G1111 ). 20 µl MTS reagent are added to each well, the assay plates are quickly spun and incubated for another 3 h at culture conditions. Subsequently, the plates are shortly shaked and absorption measured with a microplate-reader at 492 nm.

[11] = system: Jurkat; assay: MTS proliferation assay; assay type: cell-based; settings: Homo sapiens, 72 h incubation
Experimental: as §3

[12] = system: HeLa; assay: MTS proliferation assay; assay type: cell-based; settings: Homo sapiens, 72 h incubation
Experimental: as §3

SMILES: CC1(C)Cc2ccccc2-c2c(C(=O)C(F)(F)F)c3nc4ccccc4nc3n21 [No. 4, 1-(6,6-Dimethyl-5,6-dihydro-6a,7,12-triaza-dibenzo[a,h]fluoren-13-yl)-2,2,2-trifluoro-ethanone]
- percentage of positively stained cells (AnnexinV/7-AAD staining) [1]: 2 (score 2 relates to more than 50% positivity)
- percentage of positively stained cells (AnnexinV/7-AAD staining) [2]: 2 (score 2 relates to more than 50% positivity)
- percentage of positively stained cells (AnnexinV/7-AAD staining) [3]: 1 (score 1 relates to more than 10% but less than 50%)
- percentage of positively stained cells (AnnexinV/7-AAD staining) [4]: 1 (score 1 relates to more than 10% but less than 50%)
- Hoechst 33342 nuclear staining ([5]; K562, 24h, conc 0.3 (µM)): 0
- Hoechst 33342 nuclear staining ([5]; K562, 24h, conc 1 (µM)): 1 (1 relating to weak activity comprising less than 50% of the cells)
- Hoechst 33342 nuclear staining ([5]; K562, 24h, conc 3 (µM)): 2 (score 2 relating to strong activity comprising more than 50% of the cells)
- Hoechst 33342 nuclear staining ([5]; K562, 24h, conc 10 (µM)): 2 (score 2 relating to strong activity comprising more than 50% of the cells)
- Hoechst 33342 nuclear staining ([5]; K562, 48h, conc 0.3 (µM)): 0
- Hoechst 33342 nuclear staining ([5]; K562, 48h, conc 1 (µM)): 2 (score 2 relating to strong activity comprising more than 50% of the cells)
- Hoechst 33342 nuclear staining ([5]; K562, 48h, conc 3 (µM)): 2 (score 2 relating to strong activity comprising more than 50% of the cells)
- Hoechst 33342 nuclear staining ([5]; K562, 48h, conc 10 (µM)): 2 (score 2 relating to strong activity comprising more than 50% of the cells)
- Hoechst 33342 nuclear staining ([6]; 24h, conc 0.3 (µM)): 0
- Hoechst 33342 nuclear staining ([6]; 24h, conc 1 (µM)): 0
- Hoechst 33342 nuclear staining ([6]; 24h, conc 3 (µM)): 2 (score 2 relating to strong activity comprising more than 50% of the cells)
- Hoechst 33342 nuclear staining ([6]; 24h, conc 10 (µM)): 2 (score 2 relating to strong activity comprising more than 50% of the cells)
- Hoechst 33342 nuclear staining ([6]; 48h, conc 0.3 (µM)): 0
- Hoechst 33342 nuclear staining ([6]; 48h, conc 1 (µM)): 2 (score 2 relating to strong activity comprising more than 50% of the cells)
- Hoechst 33342 nuclear staining ([6]; 48h, conc 3 (µM)): 2 (score 2 relating to strong activity comprising more than 50% of the cells)
- Hoechst 33342 nuclear staining ([6]; 48h, conc 10 (µM)): 2 (score 2 relating to strong activity comprising more than 50% of the cells)
- Hoechst 33342 nuclear staining ([7]; 24h, conc 0.3 (µM)): 1 (1 relating to weak activity comprising less than 50% of the cells)
- Hoechst 33342 nuclear staining ([7]; 24h, conc 1 (µM)): 2 (score 2 relating to strong activity comprising more than 50% of the cells)
- Hoechst 33342 nuclear staining ([7]; 24h, conc 3 (µM)): 2 (score 2 relating to strong activity comprising more than 50% of the cells)
- Hoechst 33342 nuclear staining ([7]; 24h, conc 10 (µM)): 2 (score 2 relating to strong activity comprising more than 50% of the cells)
- Hoechst 33342 nuclear staining ([7]; 48h, conc 0.3 (µM)): 1 (1 relating to weak activity comprising less than 50% of the cells)
- Hoechst 33342 nuclear staining ([7]; 48h, conc 1 (µM)): 2 (score 2 relating to strong activity comprising more than 50% of the cells)
- Hoechst 33342 nuclear staining ([7]; 48h, conc 3 (µM)): 2 (score 2 relating to strong activity comprising more than 50% of the cells)
- Hoechst 33342 nuclear staining ([7]; 48h, conc 10 (µM)): 2 (score 2 relating to strong activity comprising more than 50% of the cells)
- Hoechst 33342 nuclear staining ([8]; 24h, conc 0.3 (µM)): 0
- Hoechst 33342 nuclear staining ([8]; 24h, conc 1 (µM)): 0
- Hoechst 33342 nuclear staining ([8]; 24h, conc 3 (µM)): 0
- Hoechst 33342 nuclear staining ([8]; 24h, conc 10 (µM)): 2 (score 2 relating to strong activity comprising more than 50% of the cells)
- Hoechst 33342 nuclear staining ([8]; 48h, conc 0.3 (µM)): 0
- Hoechst 33342 nuclear staining ([8]; 48h, conc 1 (µM)): 0
- Hoechst 33342 nuclear staining ([8]; 48h, conc 3 (µM)): 2 (score 2 relating to strong activity comprising more than 50% of the cells)
- Hoechst 33342 nuclear staining ([8]; 48h, conc 10 (µM)): 2 (score 2 relating to strong activity comprising more than 50% of the cells)
- Hoechst 33342 nuclear staining ([9]; 24h, conc 0.3 (µM)): 0
- Hoechst 33342 nuclear staining ([9]; 24h, conc 1 (µM)): 0
- Hoechst 33342 nuclear staining ([9]; 24h, conc 3 (µM)): 0
- Hoechst 33342 nuclear staining ([9]; 24h, conc 10 (µM)): 2 (score 2 relating to strong activity comprising more than 50% of the cells)
- Hoechst 33342 nuclear staining ([9]; 48h, conc 0.3 (µM)): 0
- Hoechst 33342 nuclear staining ([9]; 48h, conc 1 (µM)): 0
- Hoechst 33342 nuclear staining ([9]; 48h, conc 3 (µM)): 2 (score 2 relating to strong activity comprising more than 50% of the cells)
- Hoechst 33342 nuclear staining ([9]; 48h, conc 10 (µM)): 2 (score 2 relating to strong activity comprising more than 50% of the cells)
- IC50 [10]: > 10 µM
- IC50 [11]: > 10 µM
- IC50 [12]: > 10 µM
